Results on three compounds are retold here after patent US12570612B2, “Substituted nitrogen heterocyclic compound and anesthetic effect thereof” (priority 2019, dated 2026).

Some results are limits rather than exact numbers.

As a reminder, the ED50 is the dose that gives a 50% effect, or the effect in half of the subjects.

For data set [1], the system named is Sprague-Dawley rats. The format is in vivo. Particulars: tail vein.
The subject of data set [2] is Sprague-Dawley rats. Kind of data set: animal or person. It is filed as in vivo. The note with it: rats; for ED50: Rattus norvegicus, LORR, up and down method, tail vein, class symbols, read-out: ED50. The source says:
Evaluating indicator: The end point of anesthesia: the disappearance of forepaw righting reflex (lorr) was used as the end point of anesthesia; General anesthesia effect: the disappearance of forepaw righting reflex in rats lasting for 30 seconds is taken as the index of general anesthesia effect; Anesthesia recovery index: the recovery of rat forepaw righting reflex was used as the index of anesthesia recovery.

Data set [3] deals with Sprague-Dawley rats. Kind of data set: Pharmacological effect and adverse reactions under the equivalent dose (2ED50), Group D compounds. It is filed as in vivo. The note with it: for Righting reflex duration / Sedation duration / Onset time: 2ED50, tail vein, rats, n=8; for Adverse reaction: Convulsions / Adverse reaction: Cough, broken-winded / Adverse reaction: Euphoria / Adverse reaction: Four limbs rigidity / Adverse reaction: Red urine / Adverse reaction: Slower breathing, Tetany convulsion / Adverse reaction: Systemic stiffness, Convulsions, Opisthotonus / Adverse reaction: Tongue stretching / Adverse reaction: Tremor: equivalent dose (2 × ED50), number of rats of n = 8. From the text: Evaluation index: onset time: from the completion of drug injection to the disappearance of forepaw righting reflex in rats; Duration of anesthesia: the time from the disappearance of rat forepaw righting reflex to the recovery of rat forepaw righting reflex; Recovery time of anesthesia: the time from the […] to complete recovery;

The subject of another data set is SD rats. Particulars: for After the infusion is stopped: Righting reflex recovery time / Recovery time after stopping infusion: after 1 hour continuous infusion at 2 times the MIR; for After the infusion is stopped: Righting reflex recovery time / Recovery time after stopping infusion / Sedation onset time: SD rats; for Types and incidence of adverse reactions: Red urine / Types and incidence of adverse reactions: Tongue stretching / Types and incidence of adverse reactions: Tremor: continuous infusion 2 x MIR 1 hour, rats affected/rats; for Sedation onset time: continuous tail vein infusion at 2 times the MIR. The procedure:
Experimental Methods: Adult male SD rats with body weight ranging from 250 g to 350 g were selected for continuous infusion test.
Evaluation indexes: the time from the beginning of continuous infusion to the […] of sedation in rats; the time from the cessation of infusion to the restoration of the forepaw turning reflex after 1 hour of continuous infusion; the time from the cessation of infusion to the complete restoration of rats after 1 hour of continuous infusion.

As to `COC(OC)(OC)C(=O)c1cncn1[C@H](C)c1ccccc1` [Compound D77], in the data set with Sprague-Dawley rats [1], the Minimal lethal dose is reported as above 1.4 mg/kg. In the data set with Sprague-Dawley rats [2], the ED50 was 0.04 to 0.5 mg/kg and the Approximate therapeutic index was above 21.0. Besides, in the data set on Sprague-Dawley rats [3], the Righting reflex duration is recorded as 1.43 ± 0.22 min; the Sedation duration stood at 3.68 ± 0.56 min; the “Adverse reaction: Convulsions” value stood at 0; the “Adverse reaction: Cough, broken-winded” value was 0. For the same compound, in the data set with Sprague-Dawley rats [3], the “Adverse reaction: Euphoria” value stood at 0; the “Adverse reaction: Four limbs rigidity” value is 0; the “Adverse reaction: Red urine” value is 8; the “Adverse reaction: Slower breathing, Tetany convulsion” value (shortened to “Adverse reaction: Slower breathing”) is recorded as 0. In addition, in the data set on Sprague-Dawley rats [3], the “Adverse reaction: Systemic stiffness, Convulsions, Opisthotonus” value (from here on “Adverse reaction: Systemic stiffness”) is 8; the “Adverse reaction: Tongue stretching” value is listed as 1; the “Adverse reaction: Tremor” value was 0. Also, the Onset time in the data set with Sprague-Dawley rats [3] (unit s) is below 0.5 min. Also, in the data set on SD rats, the “After the infusion is stopped: Righting reflex recovery time” value (shortened to “After the infusion is stopped”) was 12 to 16 min; the “Recovery time after stopping infusion” value is 20 to 30 min; the “Types and incidence of adverse reactions: Red urine” value (“Types and incidence … Red urine” for short) is “Red urine(6/6), Tongue”; the “Types and incidence of adverse reactions: Tongue stretching” value was “stretching(3/6), Tremor(3/6)”. Besides, in the data set with SD rats, the “Types and incidence of adverse reactions: Tremor” value (“Types and incidence … Tremor” below) is recorded as “stretching(3/6), Tremor(3/6)”; the Sedation onset time is listed as below 5 min.
`COC(OC)(OC)C(=O)c1ccnn1[C@H](C)c1ccccc1` [Compound D1] came in with a Minimal lethal dose in the data set with Sprague-Dawley rats [1] above 11.2 mg/kg. Moreover, in the data set on Sprague-Dawley rats [2], the ED50 was in the range of 0.5 to 1 mg/kg and the Approximate therapeutic index is given as above 8.4. Further, in the data set on Sprague-Dawley rats [3], the Righting reflex duration came to 1.18 ± 0.43 min; the Sedation duration is 7.96 ± 2.14 min; the “Adverse reaction: Convulsions” value is reported as 0; the “Adverse reaction: Cough, broken-winded” value came out at 0. Moreover, in the data set on Sprague-Dawley rats [3], the “Adverse reaction: Euphoria” value came to 0; the “Adverse reaction: Four limbs rigidity” value came to 0; the “Adverse reaction: Red urine” value came to 8; the “Adverse reaction: Slower breathing” value was 0. In the data set with Sprague-Dawley rats [3], the “Adverse reaction: Systemic stiffness” value worked out at 0; the “Adverse reaction: Tongue stretching” value was found to be 1; the “Adverse reaction: Tremor” value was determined as 0. The Onset time with Sprague-Dawley rats [3] (unit min) is below 1 min. In the data set on SD rats, the “After the infusion is stopped” value fell in the range of 18 to 24 min; the “Recovery time after stopping infusion” value was in the range of 35 to 45 min; the “Types and incidence … Red urine” value was 6/6; the “Types and incidence of adverse reactions: Tongue stretching” value is recorded as “Tongue stretching(2/6)”. Moreover, in the data set on SD rats, the “Types and incidence … Tremor” value is given as 2/6; the Sedation onset time is recorded as below 5 min.
In turn, `COC(OC)(OC)C(=O)c1cc(F)nn1[C@H](C)c1ccccc1` [Compound D17] gave a Minimal lethal dose in the data set on Sprague-Dawley rats [1] above 11.9 mg/kg. Further, in the data set on Sprague-Dawley rats [2], the ED50 was 0.5 to 1 mg/kg and the Approximate therapeutic index is given as above 4.5. In addition, in the data set on Sprague-Dawley rats [3], the Righting reflex duration was 0.86 ± 0.23 min; the Sedation duration came to 5.48 ± 0.50 min; the “Adverse reaction: Convulsions” value is given as 0; the “Adverse reaction: Cough, broken-winded” value worked out at 0. For the same compound, in the data set on Sprague-Dawley rats [3], the “Adverse reaction: Euphoria” value worked out at 0; the “Adverse reaction: Four limbs rigidity” value is given as 1; the “Adverse reaction: Red urine” value was found to be 8; the “Adverse reaction: Slower breathing” value was found to be 0. Besides, in the data set on Sprague-Dawley rats [3], the “Adverse reaction: Systemic stiffness” value came to 0; the “Adverse reaction: Tongue stretching” value turned out to be 0; the “Adverse reaction: Tremor” value amounted to 0. Also, the Onset time in the data set with Sprague-Dawley rats [3] (unit min) is below 1 min. Moreover, in the data set on SD rats, the “After the infusion is stopped” value lay within 15 to 22 min; the “Recovery time after stopping infusion” value fell in the range of 25 to 35 min; the “Types and incidence … Red urine” value is 6/6; the “Types and incidence … Tremor” value is on record as 1/6. Also, the Sedation onset time in the data set on SD rats is reported as below 5 min.
